# According to patent US4965365A, “Imidazole derivatives and a process for the preparation thereof” (Laboratorios Vinas, S.A., priority 1988, dated 1990):
# Tests used:
# [1] = tested on: ethanol induced ulcers; details: equimolecular doses
# Description: (B) Necrotic agent model.
# The activity of this compound vs cimetidine at equimolecular doses and a control group administered a vehicle was tested using the necrotic agent model, in this case ethanol, described by A. Robert et al. (Gastroenterology, 77: 433, 1979).
# [2] = tested on: histamine induced gastric acid secretion; details: 15 mg/kg, i.p., rat, intragastric pH
# Description: (A) histamine induced gastric acid secretion model "in vivo" in the rat.
# This activity was measured in Wistar rats of 240±20 g body weight. An endovenous perfusion of a histamine solution stimulated the gastric acid secretion, causing a drop in the intragastric pH. Thereafter, this compound was administered i.p. and the increase in gastric pH caused was evaluated.
Compound,% inhibition of ulcers vs the control ([1]; ethanol model),"mm damaged (lesion index, mm of ulcer) ([1]; mean ± standard error of the mean, control 91.4 ± 8.1, a: t test p< 0.05 vs control)",pH Recovery [2]
"CNC(=NC#N)NCCSCc1nc[nH]c1C [Cimetidine, cimetidine]",30.3%,63.7 ± 7.7 mm,–
CN=C(NC#N)NCCSCc1nc[nH]c1C.[Cl][Zn][Cl] [Zn(cimetidine)Cl2],–,–,65.5%
